The subject of one test is Daudi cells. Put plainly: MIS MTT growth inhibition assay. Type of test: cell-based, human. An excerpt: (§1) A dye, 3-[4,5-dimethylthiazol-2-yl]-2,5-diphenyl-tetrazolium bromide (MTT), was used as a chromogenic indicator of the metabolically active cell mass. Viable cells metabolize the dye and accumulate a reduced formazan product (blue color) which is solubilized for colorimetry. Mossman T, J. Immunol. Methods 5:55-63 (1983); Li L and Lau B H S, In Vitro Cell Dev. Biol. 29A:531-536 (1993). The MTT assay has been established as useful for measuring either growth inhibition or population killing. Plowman, supra. The MTT method is ideal for cells tested in suspension growth, and can also be used for some cells growing in monolayers. […] Alley, supra; Hofs, supra; Wilson J K et al., Br. J. Cancer 62:189-94 (1990); Plowman, supra.
(§2) Thirty μl of 0.5% MTT in phosphate buffered saline was added to each microculture well at the appropriate time. After incubation at 37° C. for 3 hr, 120 μl of an aqueous solution of 10 % SDS with 0.01 N HCl was added to release and dissolve formazan product. This was accomplished by overnight incubation of the plate at 37° C. After careful mixing of the microwell contents by placing the plates on an orbital shaker for 5 minutes the absorbencies were quantitated by spectrophotometry at 570 nm with a Ceres UV 900 HDI microwell plate reader (from Biotek Instruments Inc, Winooski, Vt. 05404-0998). Absorbance data was normalized to a blank well containing all reagents without cells and was collected semi-automatically.
(§3) Flat-bottom 96-well plates of tissue culture quality (Corning or Costar) were set up with two-fold serial dilutions of each agent to be tested, e.g., the RA and TCI, using a multichannel pipettor with adjustable volume, e.g., Costar or Rainin, to perform serial mixing. This set-up is diagrammed in FIG. 12. […] In each plate, a total of 59 wells then contained bivariate agent combinations, the bivariate serial dilutions.
A general note: Tetrazolium dyes change colour on reduction, which living cells bring about.

The test system of test [1] is human malignant lymphoma cells (U937). Briefly: Tumorigenic assay in athymic nude mice. Type of test: in vivo. To be noted: U937 cells treated with dThd 0.2 mM for 4 hr followed by STSP 25 nM for 7 hr before subcutaneous inoculation; 14 days. An excerpt:
The biologic behavior of xenografts of human malignant cells in immunosuppressed mice can approximate natural growth conditions in a patient, since the cells receive a local supply of plasma nutrients and can survive for several weeks. Thus, inoculated cells may survive in a latent state prior to growth, a condition not readily duplicated in vitro. Inoculum size is critical for observation of tumor growth within a practical time frame. […] After treatment, cells were sedimented and resuspended in serum-free RPMI 1640. In each group four athymic Nu/Nu weanling mice of mean weight 17 gm were inoculated subcutaneously into both subscapular regions with 0.1 ml of RPMI 1640 containing 10^7 cells (viability>90%). Formation of tumors in these subcutaneous sites was observed during the next 14 days. One control mouse died prematurely. At 14 days, all animals were sacrificed, tumors were photographed, tumors were carefully dissected, and tumor weights were recorded. Tumors were verified histologically.

Test [2] deals with U937 cells. Briefly: Pilot test of enhancement of gamma radiation damage. The class given is cell-based, human. Particulars: STSP as RA, approximately 25 nM, pilot data.
Text: Serial two-fold changes in calibrated radioactive dosages are combined with two-fold serial dilutions of an agent being tested as an RA or a TCI.
For test [3], the system named is U937 cells. Briefly: MIS LDH release assay (CytoTox96). The class given is cell-based, human. To be noted: STSP for 14 H, total 18 H, STSP nM: 100,50,25,13,6,3, r16 dThd alone. Here is the method:
The MIS set up was identical to that described in Example 8. The relative activity of LDH released into supernatant from each microculture well was detected by a coupled enzymatic assay, Decker et al., J. Immunol. Methods 15:61 (1988), in which the chromogen 2-(p-iodophenyl)-3-(p-nitrophenyl)-5-phenyl tetrazolium chloride (INT) is converted to a red INT-formazan product by NADH in the presence of diaphorase.
In this procedure, after incubation and at the time for assay, 50 μl of fresh medium was added to each microculture well prior to assay and microcultures in the entire 96 well plate were simultaneously sedimented at 400×G for 10 min in a Becton Dickinson refrigerated table top centrifuge using a plate carrier. A 50 μl sample from each microwell then was removed carefully and transferred to a corresponding well in a clean 96 well plate. LDH activity was quantitated by means of the CytoTox96 assay, Promega Corp., Madison, Wis. 53711, according to the manufacturers instructions. In tests to determine the total LDH in each microwell, 10 μl of lysing reagent (from the CytoTox96 assay kit) was added to the fixed 100 μl volume with cells and medium prior to the above step. […].
These formulas use […] in which positive numbers are obtained as compared to % inhibition used above. […] Particularly for the latter purpose, all of the cells in each microculture well were totally lysed with Promega lysing reagent prior to the calorimetric measurement.
(In general: LDH in the medium is a marker of cell lysis.)

A further test has as its system pRb. Briefly: Immunoblot of pRb phosphorylation status. The class given is cell-based, human. Here is the method: Whole cell extracts (U937 cells) were prepared in an SDS 2×sample buffer (100 mM Tris.HCl (pH 6.8), 200 mM DTT and 4% sodium dodecyl sulfate) and boiled for 5 minutes. Protein concentrations were assayed, and samples of 100 μg of protein per lane were applied to 7.5% SDS-polyacrylamide gels (PAGE). Resolved proteins were transferred to Immobilon P (Millipore), and pRb was localized with monoclonal anti-pRb (Santa Cruz, IF8) and a chemiluminescence procedure (Amersham ECL). Samples for flow cytometry were prepared and flow cytometry was performed as described in Example 2.
A general note: Immunoblotting shows a protein as a band on a membrane.

The subject of test [4] is p34^cdc2, c-myc, JNK, Erk-2. Briefly: Immunoblot and kinase activity assays (CDC2, c-myc, MAP kinases). Type of test: cell-based, human. To be noted: U937, STSP ±dThd or dThd alone.
Text: The cyclin-dependent kinase p34^cdc2 was detected with antibody clone #1 from Signal Transduction Laboratories. For detection of histone phosphorylation activity p34^cdc2 was immunoprecipitated with monoclonal antibody (Santa Cruz, #17) using protein A sepharose and reacted with H1 substrate (Boehringer Mannheim) in the presence of γ^32P-ATP Aersham). […] MAP kinases were detected by immnunoblotting with monoclonal antibodies from Pharmingen (San Diego, Calif.). For assay of enzymatic activities, MAP kinases were immunoprecipitated as above with polyclonal antibody to erk2 or with a GST-JNK substrate for JNK. The substrate for erk2 was myelin basic protein substrate and for JNK was GST-JNK (Pharmingen). The protooncogene product c-myc was detected by immunoblotting with an antibody from Oncogene Sciences.
In test [5] the test system is Burkitt's lymphoma cell line Raji. Put plainly: MIS MTT growth inhibition assay. Particulars: Raji cells (Tk deficient). Type of test: cell-based, human.
Another test relates to HL-60 cells. Briefly: MIS MTT growth inhibition assay. Type of test: cell-based, human.
Text: as §1, §2, §3

The mark [6] stands for this setting: Homo sapiens, 4 h, read-out: MTT % inhibition, Aph only.
Setting [7] is: Homo sapiens, HL-60, 2 h, dThd […] 2 H, STSP 0, read-out: MTT % inhibition, dThd only.

Experimental findings from patent US6455593B1, “Method of dynamic retardation of cell cycle kinetics to potentiate cell damage” (priority 1995, dated 2002) are described below.

Molecules are shown by their SMILES. Read-outs that look alike come from different tables or passages of the source. Where only a bound is given, the exact number is not on record here.

For the compound `C[C@@]1(CO)[C@H](O)CC[C@@]2(C)[C@H]1CC[C@H]1C[C@@H]3C[C@@]12CC[C@]3(O)CO` [Aph, aphidicolin], the “combined results ratio, Aph only (baseline line)” value in the test on Daudi cells (Aph alone, every Aph concentration 8.00-0.02 ug/ml) amounted to 1.0. In the test with Daudi cells (setting [6]), the inhibition at 0.02 µg/mL worked out at 0%, the inhibition at 0.03 µg/mL amounted to 1%, the inhibition at 0.06 µg/mL was determined as 4% and the inhibition at 0.5 µg/mL amounted to 8%. In addition, in the test with Daudi cells (setting [6]), the inhibition at 1 µg/mL is 8%, the inhibition at 2 µg/mL turned out to be 9%, the inhibition at 4 µg/mL stood at 16% and the inhibition at 8 µg/mL came to 28%.
Regarding `CN[C@@H]1C[C@H]2O[C@@](C)([C@@H]1OC)n1c3ccccc3c3c4c(c5c6ccccc6n2c5c31)C(=O)NC4` [STSP, staurosporine], in test [1], the Tumor formation result is given as “developed no tumors”. Further, in the test on U937 cells [2], the “Effect on gamma radiation damage” value was “an enhancing effect upon damage produced by a single exposure of the U937 cells to 2.5 to 10 Gy of gamma radiation”.
Regarding `Cc1cn([C@H]2C[C@H](O)[C@@H](CO)O2)c(=O)[nH]c1=O` [dThd, deoxythymidine], in the test with U937 cells [3] (dThd 0.02 mM for 4 H), the “LDH release multiple, dThd 0.02 mM” value was 1.20. For the same compound, in the test on U937 cells [3] (dThd 0.06 mM for 4 H), the “LDH release multiple, dThd 0.06 mM” value is on record as 1.14. Also, the “LDH release multiple, dThd 0.09 mM” value in the test on U937 cells [3] (dThd 0.09 mM for 4 H) came out at 1.19. Further, in the test with U937 cells [3] (dThd 3.0 mM for 4 H), the “LDH release multiple, dThd 3.0 mM” value worked out at 3.61. For the same compound, the pRb phosphorylation result in the test with pRb (0.2 mM dThd) is recorded as “did not appear to be grossly inhibited”. Besides, the pRb phosphorylation result with pRb (3 mM dThd, 4 or 11 hours) is “pRb phosphorylation was inhibited”. Besides, in test [4], the “Phosphorylation of CDC2” value was “not by dThd alone”. In addition, in test [5], the “IC40, growth inhibition” value is listed as over 4 mM. In addition, the inhibition at 10 µM in the test on HL-60 cells (Homo sapiens, HL-60, 2 h, dThd 0.01 mM 2 H, STSP 0, read-out: MTT % inhibition, dThd only) was 2%. In the test with HL-60 cells (Homo sapiens, HL-60, 2 h, dThd 0.01 mM (column 8, lowest) 2 H, STSP 0, read-out: MTT % inhibition, dThd only), the inhibition at 10 µM was 5%. For the same compound, the inhibition at 20 µM with HL-60 cells (Homo sapiens, HL-60, 2 h, dThd 0.02 mM 2 H, STSP 0, read-out: MTT % inhibition, dThd only) is 7%. In addition, the inhibition at 50 µM in the test with HL-60 cells (Homo sapiens, HL-60, 2 h, dThd 0.05 mM 2 H, STSP 0, read-out: MTT % inhibition, dThd only) was determined as 10%. In addition, in the test on HL-60 cells (Homo sapiens, HL-60, 2 h, dThd 0.09 mM 2 H, STSP 0, read-out: MTT % inhibition, dThd only), the inhibition at 90 µM was 13%. Besides, the inhibition at 3000 µM in the test on HL-60 cells (Homo sapiens, HL-60, 2 h, dThd 3.00 mM 2 H, STSP 0, read-out: MTT % inhibition, dThd only) turned out to be 59%. Moreover, in the test on HL-60 cells (setting [7]), the inhibition at 190 µM was 20%, the inhibition at 380 µM turned out to be 28%, the inhibition at 750 µM turned out to be 40% and the inhibition at 1500 µM is 49%. For the same compound, in the test on HL-60 cells (dThd alone, dThd 3.00-0.09 mM), the “combined results ratio, dThd only (baseline line)” value is listed as 1.0.

As usually defined, the inhibition is the share of the control response that was lost under treatment.
